Source: paper PMC5078025, “Necrosis-inducing peptide has the beneficial effect on killing tumor cells through neuropilin (NRP-1) targeting” (Oncotarget, 2016)
Bridge positions count the residues as written; N and C are the ends. Ends that are not written are not given here.

Test system: subcutaneous CT26 colorectal carcinoma tumors
Test: Tumor volume in mice bearing subcutaneous CT26 tumors
Assay type: in vivo
Settings: BALB/c mice bearing CT26 tumor, i.v. of 1 mM TU:MTDs twice or three times, n = 3, observed until 9 days
Protocol: Figure 1 Identification of TU17:MTD as a tumor targeting peptide (A) Schematic diagram of the fusion peptides consisting of the tumor-homing motif, linker, and mitochondrial targeting domain (MTD). (B) Tumors were generated over 2 weeks after s.c. injection of CT26 cells into the backs of BALB/c mice. […] Arrows indicate the points of peptide injection. P values < 0.02 (control group vs TU17:MTD at day 5, 6, 7, 8, and 9) (C) HCT116, HeLa, A549, MCF-7, PC3, and BJAB cells were treated with TU17:MTD (0 ~ 20 μM) for 30 minutes, and cell viability was monitored using XTT assays. *P < 0.05 (D) Primary splenocytes and macrophages were treated with TU17:MTD (0 ~ 20 μM) for 30 minutes, and cell viability was monitored by XTT assay. *P < 0.05 (E) CT26 cells were treated with R8:MTD, TU17:MTD, TU17-2:MTD or TU17:MTD^4A (0 ~ 40 μM) for 4 hours, and cell viability was monitored by XTT assay. Results in C to E are expressed as means ± SD (triplicates), and are representative of at least two independent experiments. P values are for experimental groups versus controls and were calculated using Dunnett's t-test. *P < 0.05.
Figure 3 Effects of TU17:MTD, TU17-2:MTD, and TU17-2:D(KLAKLAK)2 on tumor tissues in vivo (A) Tumors were generated over 7~8 days after s.c. injection of CT26 cells into the backs of BALB/c mice. […]

Sequence | Toxicity/Tumor growth
CNGRCVSGCAGRCGGKLLNLISKLF [TU2:MTD, MTD peptide fused with tumor-homing motif, linear] | NR (NR; no regression)
KLLNLISKLFCRGDKRLYDC (disulfide 11-20 (inferred)) [TU11:MTD] | Toxic
